# In patent US20150306096A1, “8'-HYDROXY-DIHYDROERGOTAMINE COMPOUNDS AND COMPOSITIONS” (MAP Pharmaceuticals, Inc., priority 2012, published 2015):
# Tests used:
# [1] = target: T1, human Serotonin 5-HT1B receptor (Homo sapiens, UniProt P28222); assay: GTPγS functional assay; type: biochemical; conditions: read-out: Functional activity (agonist)
# T1 construct: purchased Euroscreen
# Protocol: Functional profiling of agonist and antagonist activities of 8′-OH DHE on human Adrenergic α1D, Dopamine D2L, and Serotonin 5-HT1B, 5-HT1D, 5-HT1F, 5-HT3, 5-HT4e and 5-HT5A receptors (compared against the parent (DHE) molecule) was carried out as follows.
# The SPA 35S-GTPγS tests were conducted with Euroscreen membrane preparations […]. The HTRF assays were conducted with recombinant cell lines. The receptor accession numbers, cellular background and reference compounds are as reported below in Table 10.
# (3) 8′-OH DHE was tested for agonist and antagonist activity at the human Serotonin 5-HT1B and Serotonin 5-HT1D receptors using GTPγS assay (in triplicate) at the following nanomolar concentrations: […]
# The assay procedure was carried out as follows. […] The plates were then centrifuged for 10 minutes at 2,000 rpm and counted for 1 min/well with a Perkin Elmer TopCount reader.
# Agonist activity of the test compounds was expressed as a percentage of the activity of the reference agonist at its EC100 concentration. Antagonist activity of the test compounds was expressed as a percentage of the inhibition of the reference agonist activity at its EC80 concentration. Dose-response data from the test compounds were analyzed with XLfit (IDBS) software using nonlinear regression applied to a sigmoidal dose-response model and the following equation: […]
# [2] = test system: NMDA (NR1/NR2A/NR2B/NR2C/NR2D); assay: NMDA receptor Fluo-8 calcium FLIPR assay (agonist/antagonist); type: cell-based, human; conditions: NMDA receptors
# Protocol: (§1) Additional receptor agonist/agonist activity assessments were performed using the 8′-OH DHE test compound. Table 12 contains a summary of the cell lines (CHO-K1/HEK293 transfected with relevant human receptor) and the assays performed to detect any agonist or antagonist activity.
# Studies for NMDA receptors (the NR1, NR2A, NR2B, NR2C and NR2D receptors) were conducted to monitor receptor activity of the test 8′-OH DHE compound using the Fluo-8 calcium kit and a Fluorescence Imaging Plate Reader (FLIPR^TETRA™) instrument. The following channels were evaluated: Cloned NMDA receptor (NR1/NR2A) channel (encoded by the GRIN1 and GRIN2A genes, co-expressed in HEK293 cells); Cloned NMDA receptor (NR1/NR2B) channel (encoded by the GRIN1 and GRIN2B genes, co-expressed in HEK293 cells); Cloned NMDA receptor (NR1/NR2C) channel (encoded by the GRIN1 and GRIN2C genes, co-expressed in HEK293 cells); and Cloned NMDA receptor (NR1/NR2D) channel (encoded by the GRIN1 and GRIN2D genes, transiently co-expressed in HEK293 cells).
# For the agonist assessment, the effect of the test 8′-OH DHE compound was evaluated in the absence of the positive control agonist. The signal, elicited in the presence of the agonist (100 μM Glutamic acid+20 μM Glycine), was set to 100% activation and the signal in the presence of the vehicle control (Mg^2+-free HB-PS) was set to 0% activation. […]
# OP2 (κ) = target: T2, OP2 (κ) (Homo sapiens, UniProt P41145); assay: GTPγS assay; type: biochemical; conditions: antagonism
# T2 construct: expressed in transfected cells; host or cells: CHO-K1 (membrane extracts)
# Protocol: as §1
# Reagents used were the following: Assay buffer (20 mM HEPES, pH 7.4; 100 mM NaCl; 10 mg/mL saponin; 30 mM MgCl2); Membranes (recombinant human receptor membrane extracts were thawed on ice and diluted in assay buffer to give […] (10 μgμL) and kept on ice); GDP (diluted in assay buffer to give 30 μM solution (3 μM final concentration); beads (PVT-WGA (Amersham, RPNQ001), diluted in assay buffer at 25 mg/mL (0.25 mg/10 μL)); GTPγ^35S (Perkin Elmer, NEG030X), diluted in assay buffer to give 0.1 nM (final concentration); and ligand (agonist/antagonist diluted in assay buffer).
# Membranes were mixed with GDP (1:1) and incubated for at least 15 minutes on ice. In parallel, GTPγ^35S was mixed with the beads (1:1) just before starting the reaction. […] The plates were then centrifuged for 10 minutes at 2,000 rpm and incubated at RT for 1 hour and counted for 1 min/well with a Perkin Elmer TopCount reader.
# T1 sequence (P28222 whole entry): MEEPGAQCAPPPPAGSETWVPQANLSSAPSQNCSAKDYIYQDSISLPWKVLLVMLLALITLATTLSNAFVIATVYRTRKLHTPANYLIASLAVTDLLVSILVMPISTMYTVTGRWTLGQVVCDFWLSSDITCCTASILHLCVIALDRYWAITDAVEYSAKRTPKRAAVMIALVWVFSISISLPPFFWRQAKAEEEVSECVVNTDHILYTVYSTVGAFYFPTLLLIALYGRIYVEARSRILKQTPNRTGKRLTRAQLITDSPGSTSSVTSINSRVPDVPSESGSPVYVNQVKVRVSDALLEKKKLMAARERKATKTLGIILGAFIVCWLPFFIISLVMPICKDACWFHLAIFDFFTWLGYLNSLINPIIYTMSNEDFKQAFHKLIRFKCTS
# T2 sequence (P41145 whole entry): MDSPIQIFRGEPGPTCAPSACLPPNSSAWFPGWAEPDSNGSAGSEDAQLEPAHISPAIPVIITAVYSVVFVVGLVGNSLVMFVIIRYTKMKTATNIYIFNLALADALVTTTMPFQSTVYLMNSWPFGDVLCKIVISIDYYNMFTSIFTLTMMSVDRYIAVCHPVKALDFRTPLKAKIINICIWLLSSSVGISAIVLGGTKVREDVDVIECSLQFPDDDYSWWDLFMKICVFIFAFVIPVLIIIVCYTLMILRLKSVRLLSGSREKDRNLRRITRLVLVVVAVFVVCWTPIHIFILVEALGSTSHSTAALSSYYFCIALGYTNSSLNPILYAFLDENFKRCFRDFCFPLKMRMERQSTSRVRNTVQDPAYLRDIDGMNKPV
smiles,measurement,setting,value
"CN1C[C@H](C(=O)N[C@]2(C)O[C@@]3(O)[C@@H]4CCC(O)N4C(=O)[C@H](Cc4ccccc4)N3C2=O)C[C@@H]2c3cccc4[nH]cc(c34)C[C@H]21 (stereo partly drawn) [8′-OH DHE, 8′-Hydroxy-Dihydroergotamine]",EC50,[1],0.73 nM
same,Activity (Agonism: EC50; Antagonism: IC50),[2],Inactive
same,IC50,OP2 (κ),> 1000 nM
